Assays:
Assay type in all cases: biochemical
CDK6/Cyclin D3 = CDK6/Cyclin D3 (Homo sapiens (Human), UniProt Q00534); test: CDK6/Cyclin D3 kinase assay (Nanosyn, Caliper microfluidic); conditions: 12-point dose-response, singlicate, at Km for ATP; ATP 300 μM; 3 hr
Description: (§1) Selected compounds disclosed herein were tested in kinase assays by Nanosyn (Santa Clara, CA) to determine their inhibitory effect on these CDKs. The assays were performed using microfluidic kinase detection technology (Caliper Assay Platform). The compounds were tested in 12-point dose-response format in singlicate at Km for ATP. Specifics of each assay are as described below:
CDK6/Cyclin D3: Enzyme concentration: 2 nM; ATP concentration: 300 μM; Incubation time: 3 hr.

CDK7 = CDK7 (Homo sapiens (Human), UniProt P50613); test: CDK7 kinase assay (Nanosyn, Caliper microfluidic); conditions: 12-point dose-response, singlicate, at Km for ATP
Sequence of CDK7 (P50613 whole entry): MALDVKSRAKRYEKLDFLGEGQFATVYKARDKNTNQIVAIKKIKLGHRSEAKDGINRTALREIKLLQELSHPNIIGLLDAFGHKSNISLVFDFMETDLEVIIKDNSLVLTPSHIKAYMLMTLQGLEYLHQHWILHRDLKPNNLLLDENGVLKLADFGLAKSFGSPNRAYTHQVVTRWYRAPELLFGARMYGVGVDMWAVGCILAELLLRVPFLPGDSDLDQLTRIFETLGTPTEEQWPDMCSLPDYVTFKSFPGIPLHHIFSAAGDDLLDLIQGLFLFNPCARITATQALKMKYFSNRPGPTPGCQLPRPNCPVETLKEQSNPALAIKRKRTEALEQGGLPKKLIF
Sequence of CDK7 (P51946 whole entry partner): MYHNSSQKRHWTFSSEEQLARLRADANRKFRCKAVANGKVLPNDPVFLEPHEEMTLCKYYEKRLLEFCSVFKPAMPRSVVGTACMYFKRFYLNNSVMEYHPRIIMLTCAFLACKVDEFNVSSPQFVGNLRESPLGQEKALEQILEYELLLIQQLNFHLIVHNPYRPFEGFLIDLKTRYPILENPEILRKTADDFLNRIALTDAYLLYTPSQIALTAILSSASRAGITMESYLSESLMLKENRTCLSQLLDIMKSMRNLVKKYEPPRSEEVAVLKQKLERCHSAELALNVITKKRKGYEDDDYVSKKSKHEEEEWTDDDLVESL
Sequence of CDK7 (P51948 whole entry partner): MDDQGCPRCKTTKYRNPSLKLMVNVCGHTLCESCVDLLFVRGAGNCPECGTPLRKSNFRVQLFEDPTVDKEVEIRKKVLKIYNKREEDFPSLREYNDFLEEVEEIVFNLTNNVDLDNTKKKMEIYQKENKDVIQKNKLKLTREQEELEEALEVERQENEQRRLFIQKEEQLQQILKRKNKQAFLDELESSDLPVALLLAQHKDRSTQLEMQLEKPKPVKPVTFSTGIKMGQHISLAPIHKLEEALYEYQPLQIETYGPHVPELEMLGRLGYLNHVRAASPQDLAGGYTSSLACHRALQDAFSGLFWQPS
Description: as §1, with “ATP.” for “ATP. Specifics of each assay are as described below:”

CDK3-CYCLIN-E = CDK3-CYCLIN-E (Homo sapiens (Human), UniProt Q00526); test: CDK3-Cyclin-E kinase assay (Nanosyn, Caliper microfluidic); conditions: 12-point dose-response, singlicate, at Km for ATP
Description: as §1, with “ATP.” for “ATP. Specifics of each assay are as described below:”

CDK9/Cyclin T1 = CDK9/Cyclin T1 (Homo sapiens (Human), UniProt P50750); test: CDK9/Cyclin T1 kinase assay (Nanosyn, Caliper microfluidic); conditions: 12-point dose-response, singlicate, at Km for ATP; ATP 10 μM; 17 hr
Sequence of CDK9/Cyclin T1 (P50750 whole entry): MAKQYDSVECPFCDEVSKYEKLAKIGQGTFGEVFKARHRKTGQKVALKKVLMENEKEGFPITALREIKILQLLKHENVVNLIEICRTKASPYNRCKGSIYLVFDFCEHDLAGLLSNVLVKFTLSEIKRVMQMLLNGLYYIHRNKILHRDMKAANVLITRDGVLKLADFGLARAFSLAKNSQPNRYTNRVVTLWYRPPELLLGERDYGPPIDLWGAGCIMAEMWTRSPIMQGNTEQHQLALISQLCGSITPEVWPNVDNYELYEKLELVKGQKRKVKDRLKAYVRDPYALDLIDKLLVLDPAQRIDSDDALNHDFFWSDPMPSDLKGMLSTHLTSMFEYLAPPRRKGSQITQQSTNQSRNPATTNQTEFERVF
Sequence of CDK9/Cyclin T1 (O60563 whole entry partner): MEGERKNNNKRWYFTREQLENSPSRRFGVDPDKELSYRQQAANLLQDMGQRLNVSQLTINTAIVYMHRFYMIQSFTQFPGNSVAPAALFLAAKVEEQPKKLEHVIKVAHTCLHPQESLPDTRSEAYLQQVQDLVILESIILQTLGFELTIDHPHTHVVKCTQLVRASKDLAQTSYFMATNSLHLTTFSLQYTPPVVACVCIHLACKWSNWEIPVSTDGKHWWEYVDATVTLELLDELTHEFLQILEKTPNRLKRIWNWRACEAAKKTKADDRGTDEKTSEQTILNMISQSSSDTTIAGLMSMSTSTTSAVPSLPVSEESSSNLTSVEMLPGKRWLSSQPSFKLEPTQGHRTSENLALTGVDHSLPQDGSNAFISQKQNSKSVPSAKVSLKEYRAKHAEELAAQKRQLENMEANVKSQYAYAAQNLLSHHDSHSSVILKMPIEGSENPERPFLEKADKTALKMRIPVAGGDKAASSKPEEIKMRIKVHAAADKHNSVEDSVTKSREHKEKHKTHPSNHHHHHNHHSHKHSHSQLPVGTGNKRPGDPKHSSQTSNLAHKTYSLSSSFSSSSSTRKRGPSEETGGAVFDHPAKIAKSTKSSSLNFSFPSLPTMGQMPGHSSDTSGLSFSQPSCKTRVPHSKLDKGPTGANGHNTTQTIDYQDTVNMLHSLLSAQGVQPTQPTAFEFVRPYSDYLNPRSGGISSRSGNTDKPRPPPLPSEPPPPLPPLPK
Description: as §1
CDK9/Cyclin T1: Enzyme concentration: 5 nM; ATP concentration: 10 μM; Incubation time: 17 hr.

CDK2/Cyclin A = CDK2/Cyclin A (Homo sapiens (Human), UniProt P24941); test: CDK2/Cyclin A kinase assay (Nanosyn, Caliper microfluidic); conditions: 12-point dose-response, singlicate, at Km for ATP; ATP 50 μM; 3 hr
Description: as §1
CDK2/Cyclin A: Enzyme concentration: 0.1 nM; ATP concentration: 50 μM; Incubation time: 3 hr.

CDK2/Cyclin E = CDK2/Cyclin E (Homo sapiens (Human), UniProt P24941); test: CDK2/Cyclin E kinase assay (Nanosyn, Caliper microfluidic); conditions: 12-point dose-response, singlicate, at Km for ATP; ATP 100 μM; 3 hr
Description: as §1
CDK2/Cyclin E: Enzyme concentration: 0.15 nM; ATP concentration: 100 μM; Incubation time: 3 hr.

CDK5-p25 = CDK5-p25 (Homo sapiens (Human), UniProt Q00535); test: CDK5-p25 kinase assay (Nanosyn, Caliper microfluidic); conditions: 12-point dose-response, singlicate, at Km for ATP
Sequence of CDK5-p25 (Q00535 whole entry): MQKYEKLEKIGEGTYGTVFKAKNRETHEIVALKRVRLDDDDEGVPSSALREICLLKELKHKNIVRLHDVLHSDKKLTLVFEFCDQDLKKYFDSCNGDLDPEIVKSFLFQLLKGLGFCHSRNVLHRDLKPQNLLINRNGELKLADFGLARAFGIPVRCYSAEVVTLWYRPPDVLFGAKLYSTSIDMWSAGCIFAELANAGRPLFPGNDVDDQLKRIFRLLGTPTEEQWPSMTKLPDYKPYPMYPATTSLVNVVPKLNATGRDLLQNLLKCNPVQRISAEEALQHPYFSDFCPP
Sequence of CDK5-p25 (Q15078 99-307 partner): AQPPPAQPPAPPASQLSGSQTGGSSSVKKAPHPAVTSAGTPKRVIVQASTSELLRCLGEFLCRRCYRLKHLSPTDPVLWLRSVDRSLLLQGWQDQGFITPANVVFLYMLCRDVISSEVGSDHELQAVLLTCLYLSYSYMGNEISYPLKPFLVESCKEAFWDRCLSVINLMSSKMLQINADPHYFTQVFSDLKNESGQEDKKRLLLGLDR
Description: as §1, with “ATP.” for “ATP. Specifics of each assay are as described below:”

CDK4/Cyclin D1 = CDK4/Cyclin D1 (Homo sapiens (Human), UniProt P11802); test: CDK4/Cyclin D1 kinase assay (Nanosyn, Caliper microfluidic); conditions: 12-point dose-response, singlicate, at Km for ATP; ATP 200 μM; 3 hr
Sequence of CDK4/Cyclin D1 (P11802 whole entry): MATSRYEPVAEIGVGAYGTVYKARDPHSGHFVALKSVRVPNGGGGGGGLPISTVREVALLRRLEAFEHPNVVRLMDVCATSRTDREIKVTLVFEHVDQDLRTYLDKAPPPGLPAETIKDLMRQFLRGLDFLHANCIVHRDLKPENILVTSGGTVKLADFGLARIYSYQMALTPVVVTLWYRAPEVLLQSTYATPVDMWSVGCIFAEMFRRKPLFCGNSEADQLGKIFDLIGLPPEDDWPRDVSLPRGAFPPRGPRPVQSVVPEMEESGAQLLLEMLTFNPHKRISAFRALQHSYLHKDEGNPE
Sequence of CDK4/Cyclin D1 (P24385 whole entry partner): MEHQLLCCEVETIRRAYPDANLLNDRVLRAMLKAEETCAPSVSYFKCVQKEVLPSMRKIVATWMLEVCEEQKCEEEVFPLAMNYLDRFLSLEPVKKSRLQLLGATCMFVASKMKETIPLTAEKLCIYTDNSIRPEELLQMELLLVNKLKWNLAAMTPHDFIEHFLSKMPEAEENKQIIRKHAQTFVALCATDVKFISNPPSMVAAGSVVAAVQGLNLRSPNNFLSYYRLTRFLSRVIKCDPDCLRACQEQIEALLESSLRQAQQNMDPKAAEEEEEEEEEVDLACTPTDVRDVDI
Description: as §1
CDK4/Cyclin D1: Enzyme concentration: 1 nM; ATP concentration: 200 μM; Incubation time: 3 hr.

CDK1/Cyclin B1 = CDK1/Cyclin B1 (Homo sapiens (Human), UniProt P06493); test: CDK1/Cyclin B1 kinase assay (Nanosyn, Caliper microfluidic); conditions: 12-point dose-response, singlicate, at Km for ATP; ATP 40 μM; 3 hr
Sequence of CDK1/Cyclin B1 (P06493 whole entry): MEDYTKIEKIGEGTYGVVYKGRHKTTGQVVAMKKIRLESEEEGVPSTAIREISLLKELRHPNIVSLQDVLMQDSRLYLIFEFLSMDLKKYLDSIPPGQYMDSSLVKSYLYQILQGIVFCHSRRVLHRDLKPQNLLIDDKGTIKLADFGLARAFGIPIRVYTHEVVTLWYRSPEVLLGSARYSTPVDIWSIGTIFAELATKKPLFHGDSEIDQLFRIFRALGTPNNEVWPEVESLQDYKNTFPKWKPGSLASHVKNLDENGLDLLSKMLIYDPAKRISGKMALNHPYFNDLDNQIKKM
Sequence of CDK1/Cyclin B1 (P14635 whole entry partner): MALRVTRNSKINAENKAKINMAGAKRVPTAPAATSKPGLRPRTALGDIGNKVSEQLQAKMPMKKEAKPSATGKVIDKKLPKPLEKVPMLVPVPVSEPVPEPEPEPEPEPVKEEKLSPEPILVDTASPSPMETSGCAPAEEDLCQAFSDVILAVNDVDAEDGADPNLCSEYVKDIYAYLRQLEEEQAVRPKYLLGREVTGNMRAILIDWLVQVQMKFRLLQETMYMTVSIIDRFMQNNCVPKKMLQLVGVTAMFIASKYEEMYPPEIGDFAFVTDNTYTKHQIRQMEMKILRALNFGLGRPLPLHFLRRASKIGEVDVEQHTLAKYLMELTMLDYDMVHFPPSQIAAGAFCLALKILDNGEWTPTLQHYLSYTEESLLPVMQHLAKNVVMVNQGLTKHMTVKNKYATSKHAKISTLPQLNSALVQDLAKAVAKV
Description: as §1
CDK1/Cyclin B1: Enzyme concentration: 0.08 nM; ATP concentration: 40 μM; Incubation time: 3 hr.

Sequence of CDK6/Cyclin D3 (Q00534 whole entry): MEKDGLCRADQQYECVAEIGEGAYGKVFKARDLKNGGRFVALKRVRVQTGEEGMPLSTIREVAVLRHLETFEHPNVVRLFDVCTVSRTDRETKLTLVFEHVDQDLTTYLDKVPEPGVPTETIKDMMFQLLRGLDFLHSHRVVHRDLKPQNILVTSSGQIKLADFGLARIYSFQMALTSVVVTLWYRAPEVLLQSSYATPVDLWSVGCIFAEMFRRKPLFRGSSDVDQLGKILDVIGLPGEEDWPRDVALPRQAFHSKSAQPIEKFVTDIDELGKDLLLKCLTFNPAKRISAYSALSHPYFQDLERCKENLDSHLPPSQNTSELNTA
Sequence of CDK6/Cyclin D3 (P30281 whole entry partner): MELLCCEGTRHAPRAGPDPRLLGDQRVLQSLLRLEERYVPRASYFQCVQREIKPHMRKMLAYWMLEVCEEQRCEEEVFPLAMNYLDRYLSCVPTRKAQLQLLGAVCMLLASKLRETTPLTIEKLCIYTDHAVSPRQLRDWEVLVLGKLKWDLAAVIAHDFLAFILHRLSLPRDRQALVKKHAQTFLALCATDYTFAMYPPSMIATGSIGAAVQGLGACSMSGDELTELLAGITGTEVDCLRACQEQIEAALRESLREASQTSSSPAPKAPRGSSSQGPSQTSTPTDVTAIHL

SMILES	IC50 (CDK6/Cyclin D3) [nM]	IC50 (CDK7) [nM]	IC50 (CDK3-CYCLIN-E) [nM]	IC50 (CDK9/Cyclin T1) [nM]	IC50 (CDK2/Cyclin A) [nM]	IC50 (CDK2/Cyclin E) [nM]	IC50 (CDK5-p25) [nM]	IC50 (CDK4/Cyclin D1) [nM]	IC50 (CDK1/Cyclin B1) [nM]
NS(=O)(=O)c1ccc(Nc2ncc3cc4n(c3n2)C2(CCCCC2)C(=O)N[C@H]4CF)cc1 [Compound 18, (R)-4-((6′-(fluoromethyl)-8′-oxo-7′,8′-dihydro-6′H-spiro[cyclohexane-1,9′-pyrazino[1′,2′:1,5]pyrrolo[2,3-d]pyrimidin]-2′-yl)amino)benzenesulfonamide]	150	840	18	10	1.7	2.7	17	33	20
C[C@@H]1NC(=O)C2(CCCCC2)n2c1cc1cnc(Nc3ccc(S(N)(=O)=O)cc3)nc12 [Compound 19, (S)-4-((6′-methyl-8′-oxo-7′,8′-dihydro-6′H-spiro[cyclohexane-1,9′-pyrazino[1′,2′:1,5]pyrrolo[2,3-d]pyrimidin]-2′-yl)amino)benzenesulfonamide]	210	800	34	22	4.3	4.8	62	40	40
O=C1NCC2(CCCCC2)n2c1cc1cnc(Nc3ccc(C(=O)N4CCNCC4)cc3)nc12 [Compound 55, 2′-((4-(piperazine-1-carbonyl)phenyl)amino)-7′,8′-dihydro-6′H-spiro[cyclohexane-1,9′-pyrazino[1′,2′:1,5]pyrrolo[2,3-d]pyrimidin]-6′-one]	0.4	27	6	1	0.6	1	–	0.3	5
CNC(=O)c1ccc(Nc2ncc3cc4n(c3n2)C2(CCCCC2)C(=O)NN4)cc1 [Compound 64, N-methyl-4-((3′-oxo-2′,3′-dihydro-1′H-spiro[cyclohexane-1,4′-pyrimido[5′,4′:4,5]pyrrolo[2,1-c][1,2,4]triazin]-7′-yl)amino)benzamide]	417	> 1000	105	85	85	23	–	132	505
NS(=O)(=O)c1ccc(Nc2ncc3cc4n(c3n2)C2(C=NN4)CCCCC2)cc1 [Compound 4, 4-((1′H-spiro[cyclohexane-1,4′-pyrimido[5′,4′:4,5]pyrrolo[2,1-c][1,2,4]triazin]-7′-yl)amino)benzenesulfonamide]	170	230	5	11	1	1	–	53	89
O=C(c1ccc(Nc2ncc3cc4n(c3n2)C2(CCCCC2)C(=O)NN4)cc1)N1CCNCC1 [Compound 61, 7′-((4-(piperazine-1-carbonyl)phenyl)amino)-1′,2′-dihydro-3′H-spiro[cyclohexane-1,4′-pyrimido[5′,4′:4,5]pyrrolo[2,1-c][1,2,4]triazin]-3′-one]	40	> 1000	58	190	17	4	–	17	133
CN1CCN(C(=O)c2ccc(Nc3ncc4cc5n(c4n3)C3(CCCCC3)CC(=O)N5)cc2)CC1 [Compound 54, 2′-((4-(4-methylpiperazine-1-carbonyl)phenyl)amino)-6′H-spiro[cyclohexane-1,9′-pyrrolo[1,5-a:2,3-d′]dipyrimidin]-7′(8′H)-one]	7	144	8	7	2	1	–	3	12
NS(=O)(=O)c1ccc(Nc2ncc3cc4n(c3n2)C2(CCCCC2)C(=O)NN4)cc1 [Compound 3, 4-((3′-oxo-2′,3′-dihydro-1′H-spiro[cyclohexane-1,4′-pyrimido[5′,4′:4,5]pyrrolo[2,1-c][1,2,4]triazin]-7′-yl)amino)benzenesulfonamide]	350	> 1000	9.9	62	2.5	0.56	14	130	33

The remaining compounds from weak to strong by IC50 (CDK6/Cyclin D3), led by results:

IC50 (CDK6/Cyclin D3) [nM]	IC50 (CDK7) [nM]	IC50 (CDK3-CYCLIN-E) [nM]	IC50 (CDK9/Cyclin T1) [nM]	IC50 (CDK2/Cyclin A) [nM]	IC50 (CDK2/Cyclin E) [nM]	IC50 (CDK5-p25) [nM]	IC50 (CDK4/Cyclin D1) [nM]	IC50 (CDK1/Cyclin B1) [nM]	SMILES
231	875	23	26	2	3	–	41	11	CN1N=CC2(CCCCC2)n2c1cc1cnc(Nc3ccc(S(N)(=O)=O)cc3)nc12 [Compound 5, 4-((1′-methyl-1′H-spiro[cyclohexane-1,4′-pyrimido[5′,4′:4,5]pyrrolo[2,1-c][1,2,4]triazin]-7′-yl)amino)benzenesulfonamide]
216	> 1000	187	398	61	14	–	82	727	CN(C)C(=O)c1ccc(Nc2ncc3cc4n(c3n2)C2(CCCCC2)C(=O)NN4)cc1 [Compound 62, N,N-dimethyl-4-((3′-oxo-2′,3′-dihydro-1′H-spiro[cyclohexane-1,4′-pyrimido[5′,4′:4,5]pyrrolo[2,1-c][1,2,4]triazin]-7′-yl)amino)benzamide]
160	> 1000	59	180	9.2	13	140	28	88	CN1NC(=O)C2(CCCCC2)n2c1cc1cnc(Nc3ccc(S(N)(=O)=O)cc3)nc12 [Compound 12, 4-((1′-methyl-3′-oxo-2′,3′-dihydro-1′H-spiro[cyclohexane-1,4′-pyrimido[5′,4′:4,5]pyrrolo[2,1-c][1,2,4]triazin]-7′-yl)amino)benzenesulfonamide]
98	200	2.8	4.5	0.4	0.5	1.3	41	3.7	NS(=O)(=O)c1ccc(Nc2ncc3cc4n(c3n2)C2(CCCCC2)CC(=O)N4)cc1 [Compound 2, 4-((7′-oxo-7′,8′-dihydro-6′H-spiro[cyclohexane-1,9′-pyrrolo[1,5-a:2,3-d′]dipyrimidin]-2′-yl)amino)benzenesulfonamide]
83	723	13	9	2	2	–	22	14	CC1=NN(C)c2cc3cnc(Nc4ccc(S(N)(=O)=O)cc4)nc3n2C12CCCCC2 [Compound 46, 4-((1′,3′-dimethyl-1′H-spiro[cyclohexane-1,4′-pyrimido[5′,4′:4,5]pyrrolo[2,1-c][1,2,4]triazin]-7′-yl)amino)benzenesulfonamide]
7.5	560	0.94	1.4	0.16	0.34	0.8	3.1	2.2	NS(=O)(=O)c1ccc(Nc2ncc3cc4n(c3n2)C2(CCCCC2)C(=O)NC4O)cc1 (stereo not drawn) [Compound 1, 4-((6′-hydroxy-8′-oxo-7′,8′-dihydro-6′H-spiro[cyclohexane-1,9′-pyrazino[1′,2′:1,5]pyrrolo[2,3-d]pyrimidin]-2'-yl)amino)benzenesulfonamide]
5	615	10	10	2	4	–	2	27	CN1CCN(C(=O)c2ccc(Nc3ncc4cc5n(c4n3)C3(CCCCC3)C(=O)NC5O)cc2)CC1 (stereo not drawn) [Compound 53, 6′-hydroxy-2′-((4-(4-methylpiperazine-1-carbonyl)phenyl)amino)-6′,7′-dihydro-8′H-spiro[cyclohexane-1,9′-pyrazino[1′,2′:1,5]pyrrolo[2,3-d]pyrimidin]-8′-one]

Source: patent US20240150369A1, “CYCLIN-DEPENDENT KINASE INHIBITING COMPOUNDS FOR THE TREATMENT OF MEDICAL DISORDERS” (G1 Therapeutics, Inc., priority 2020, published 2024)
